Assay [1] has as its target T1, Prostaglandin D2 receptor 2 (Homo sapiens, UniProt Q9Y5Y4).
T1 sequence (Q9Y5Y4 whole entry): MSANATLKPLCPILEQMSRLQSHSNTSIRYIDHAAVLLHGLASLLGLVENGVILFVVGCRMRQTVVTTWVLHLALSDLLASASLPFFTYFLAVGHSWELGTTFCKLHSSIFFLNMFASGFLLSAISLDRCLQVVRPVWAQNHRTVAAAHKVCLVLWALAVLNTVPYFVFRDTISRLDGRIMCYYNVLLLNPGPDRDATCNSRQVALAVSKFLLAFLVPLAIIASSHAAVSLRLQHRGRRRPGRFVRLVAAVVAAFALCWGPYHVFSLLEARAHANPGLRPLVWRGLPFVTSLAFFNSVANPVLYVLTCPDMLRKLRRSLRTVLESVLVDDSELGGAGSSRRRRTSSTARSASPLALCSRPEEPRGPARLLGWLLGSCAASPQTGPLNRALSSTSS
Description: Displacement of [35S]-GTPgammaS from CRTH2 receptor (unknown origin) expressed in CHOK1 cell membrane after 1 hr by liquid scintillation counter. The class given is cell membranes, CHO-K1.

The test system of assay [2] is Prostaglandin D2 receptor 2, CRTh2 (Homo sapiens). Description: Antagonist activity at CRTH2 receptor (unknown origin) expressed in CHOK1 cells assessed as dissociation half life measured up to 25 hrs by GTPgammaS assay. Particulars: CHO-K1.
Assay [3] deals with T2, Prostaglandin D2 receptor 2 (Homo sapiens) (UniProt Q9Y5Y4).
T2 sequence (whole entry): T1 sequence (Q9Y5Y4 whole entry)
Description: Displacement of [35S]-GTPgammaS from CRTH2 receptor (unknown origin) expressed in CHOK1 cell membrane at 10 uM after 1 hr by liquid scintillation counter. The format is cell membranes. Particulars: CHO-K1.

`Cc1c(-c2ccccc2)n(CC(=O)O)c(=O)n1Cc1ccccc1S(=O)(=O)c1ccc(F)cc1`: in assay [1], the IC50 stood at 10000 nM.
In the case of `COc1ccc(S(=O)(=O)c2ccc(F)cc2)c(Cc2c3c(n(CC(=O)O)c2C)CCCC3=O)c1`, the IC50 in assay [1] was 2 nM. For the same molecule, in assay [2], the T1/2 was 21 h.
Molecule `Cc1c(Cc2ccccc2S(=O)(=O)c2ccc(F)cc2)nc(-c2ccccc2)n1CC(=O)O` displayed an IC50 in assay [1] of 8 nM. Further, the T1/2 in assay [2] stood at 0.6 h.
As for `O=C(O)Cc1cc(Cc2ccccc2S(=O)(=O)c2ccccc2)c2nc(C(F)(F)F)ccn12`, the IC50 in assay [1] was 47 nM. The T1/2 in assay [2] came out at 0.05 h.
`O=C(O)Cc1ccc(=O)n(Cc2ccccc2S(=O)(=O)c2ccccc2)c1` returned a half-maximal inhibitory concentration (IC50) in assay [1] of 10000 nM.
Same read-out and setting: then `O=C(O)Cn1c(-c2ccccc2)nn(Cc2ccccc2S(=O)(=O)c2ccccc2)c1=O`, with 2400 nM.
Regarding `O=C(O)CN1c2cccnc2N(Cc2ccccc2S(=O)(=O)c2ccccc2)S1(=O)=O`, in assay [1], the 50% inhibitory concentration (IC50) turned out to be 1600 nM.
For `O=C(O)Cc1nn(Cc2ccccc2S(=O)(=O)c2ccccc2)c(=O)c2ccccc12`, in assay [1], the IC50 stood at 65 nM. Also, the T1/2 in assay [2] was 0.04 h.
In the case of `O=C(O)Cc1cccn(Cc2ccccc2S(=O)(=O)c2ccccc2)c1=O`, the inhibition in assay [3] was < 25%.
In assay [1], `COc1ccc(S(=O)(=O)c2ccc(F)cc2)c(Cn2c(C)c(CC(=O)O)c3ccc(C)nc32)c1` displayed a half-maximal inhibitory concentration (IC50) of 4 nM. In assay [2], the T1/2 was determined as 13 h.
With `Cc1c(Cc2ccccc2S(=O)(=O)c2ccccc2)c(-c2ccccc2)nn1CC(=O)O`, the concentration for half-maximal inhibition (IC50) in assay [1] was determined as 85 nM.
The molecule `Cc1c(Cc2ccccc2S(=O)(=O)c2ccccc2)c(=O)n(-c2ccccc2)n1CC(=O)O` returned a half-maximal inhibitory concentration (IC50) in assay [1] of 970 nM.
In the case of `O=C(O)Cn1nc(-c2ccccc2)cc(Cc2ccccc2S(=O)(=O)c2ccccc2)c1=O`, the inhibition in assay [3] was < 25%.
With `COc1ccc(S(=O)(=O)c2ccc(F)cc2)c(Cn2cc(CC(=O)O)c3ccc(C)nc32)c1`, the IC50 in assay [1] amounted to 18 nM. In other words, the double-digit nanomolar range.
In turn, `O=C(O)Cc1cc(Cl)c(=O)n(Cc2ccccc2S(=O)(=O)c2ccccc2)c1` registered an IC50 in assay [1] of 860 nM. Against the preceding molecule, the IC50 is about 48-fold higher.
The molecule `Cc1c(Cc2ccccc2S(=O)(=O)c2ccccc2)c2cc(F)ccc2n1CC(=O)O` registered a half-maximal inhibitory concentration (IC50) in assay [1] of 14 nM. The T1/2 in assay [2] was 1.3 h.
`Cc1ccc2c(CC(=O)O)c(C)n(Cc3ccccc3S(=O)(=O)c3ccccc3)c2n1` came in with an IC50 in assay [1] of 14 nM. Also, the T1/2 in assay [2] worked out at 1.3 h.
Consider `O=C(O)Cc1nc(Cc2ccccc2S(=O)(=O)c2ccccc2)n2ccccc12`, for which the IC50 in assay [1] worked out at 3000 nM.
Turning to `O=C(O)Cn1nc(Cc2ccccc2S(=O)(=O)c2ccccc2)c2ccccc2c1=O`, in assay [3], the inhibition was < 25%.
In assay [1], `Cc1c(Cc2ccccc2S(=O)(=O)c2ccc(F)cc2)c2c(n1CC(=O)O)CCCC2=O` returned a half-inhibitory concentration (IC50) of 2 nM. The T1/2 in assay [2] is 21 h.
As to `Cc1c(Cc2ccccc2S(=O)(=O)c2ccc(F)cc2)c2c(n1CC(=O)O)CCCC2`, the IC50 in assay [1] was found to be 104 nM.
In the case of `COc1ccc(S(=O)(=O)c2ccc(F)cc2)c(Cc2c(C)c(CC(=O)O)c3ccncn23)c1`, the IC50 in assay [1] worked out at 5 nM.
As for `O=C(O)Cn1nc(-c2ccccc2)n(Cc2ccccc2S(=O)(=O)c2ccccc2)c1=O`, in assay [3], the inhibition was < 25%.
The molecule `Cc1c(CC(=O)O)c2ccncn2c1Cc1ccccc1S(=O)(=O)c1ccccc1` displayed a half-maximal inhibitory concentration (IC50) in assay [1] of 28 nM. This lies in the double-digit nanomolar range.
Take `Cc1c(CC(=O)O)c(-c2ccccc2)nn1Cc1ccccc1S(=O)(=O)c1ccccc1`: in assay [2], the T1/2 was 0.1 h.

Source of the values: ChEMBL document CHEMBL3774370, “Structure-activity relationships (SAR) and structure-kinetic relationships (SKR) of sulphone-based CRTh2 antagonists” (Eur J Med Chem, 2016).
